Columns and labels:
Type in all cases: biochemical
Details in all cases: 100 micromolar inhibitor concentration, 100 is no change
PIM2 = PIM2 (Homo sapiens, UniProt Q9P1W9); experiment: Kinase profiling PIM2
Description: (§1) Any value less that 25 is considered to be highly significant inhibition.

MARK4 = target: T1, MARK4 (Homo sapiens, UniProt Q96L34); experiment: Kinase profiling MARK4
T1 sequence (Q96L34 1-752): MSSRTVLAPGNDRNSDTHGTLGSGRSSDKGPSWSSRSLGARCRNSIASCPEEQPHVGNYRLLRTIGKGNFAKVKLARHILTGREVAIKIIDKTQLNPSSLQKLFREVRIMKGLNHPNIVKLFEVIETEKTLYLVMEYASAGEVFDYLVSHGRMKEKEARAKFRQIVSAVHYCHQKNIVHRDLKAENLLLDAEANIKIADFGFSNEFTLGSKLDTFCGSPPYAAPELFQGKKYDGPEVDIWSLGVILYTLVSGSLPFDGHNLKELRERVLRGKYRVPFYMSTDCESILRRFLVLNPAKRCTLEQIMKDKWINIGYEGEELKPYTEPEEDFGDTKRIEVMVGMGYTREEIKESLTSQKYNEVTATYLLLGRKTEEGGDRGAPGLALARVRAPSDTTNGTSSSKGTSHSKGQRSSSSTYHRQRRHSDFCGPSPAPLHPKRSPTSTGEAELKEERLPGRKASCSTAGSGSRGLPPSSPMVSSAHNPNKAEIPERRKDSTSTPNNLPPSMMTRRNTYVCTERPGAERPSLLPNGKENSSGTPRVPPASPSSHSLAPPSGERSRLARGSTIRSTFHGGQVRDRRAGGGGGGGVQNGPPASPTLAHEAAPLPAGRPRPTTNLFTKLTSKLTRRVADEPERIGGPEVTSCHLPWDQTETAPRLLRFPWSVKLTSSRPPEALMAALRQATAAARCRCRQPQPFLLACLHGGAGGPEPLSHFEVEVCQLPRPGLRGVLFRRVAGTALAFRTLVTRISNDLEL
Description: as §1

GCK = target: T2, GCK (Homo sapiens, UniProt Q12851); experiment: Kinase profiling GCK
T2 sequence (Q12851 1-820): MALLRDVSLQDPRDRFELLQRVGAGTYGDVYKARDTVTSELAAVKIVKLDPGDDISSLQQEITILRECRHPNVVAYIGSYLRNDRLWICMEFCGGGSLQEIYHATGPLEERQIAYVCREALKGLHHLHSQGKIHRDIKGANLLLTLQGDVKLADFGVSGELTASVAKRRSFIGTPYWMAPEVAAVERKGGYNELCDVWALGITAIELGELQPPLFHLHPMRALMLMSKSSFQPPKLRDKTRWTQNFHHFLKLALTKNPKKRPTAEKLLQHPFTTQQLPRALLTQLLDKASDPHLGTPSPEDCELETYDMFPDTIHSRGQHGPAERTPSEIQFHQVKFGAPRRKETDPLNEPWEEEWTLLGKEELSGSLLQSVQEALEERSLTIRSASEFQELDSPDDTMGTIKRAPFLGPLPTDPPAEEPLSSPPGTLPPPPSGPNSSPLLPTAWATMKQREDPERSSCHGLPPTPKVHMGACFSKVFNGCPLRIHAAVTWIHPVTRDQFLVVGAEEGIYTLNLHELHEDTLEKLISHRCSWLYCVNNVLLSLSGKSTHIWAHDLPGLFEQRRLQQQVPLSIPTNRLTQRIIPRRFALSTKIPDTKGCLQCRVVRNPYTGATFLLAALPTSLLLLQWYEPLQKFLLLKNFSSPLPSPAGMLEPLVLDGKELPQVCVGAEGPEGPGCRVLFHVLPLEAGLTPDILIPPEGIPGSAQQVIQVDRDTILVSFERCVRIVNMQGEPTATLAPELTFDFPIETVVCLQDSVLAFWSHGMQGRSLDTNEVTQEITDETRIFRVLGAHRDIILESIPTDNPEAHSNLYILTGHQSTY
Description: as §1

TESK1 = TESK1 (Homo sapiens, UniProt Q15569); experiment: Kinase profiling TESK1
Sequence of TESK1 (Q15569 whole entry, species assumed): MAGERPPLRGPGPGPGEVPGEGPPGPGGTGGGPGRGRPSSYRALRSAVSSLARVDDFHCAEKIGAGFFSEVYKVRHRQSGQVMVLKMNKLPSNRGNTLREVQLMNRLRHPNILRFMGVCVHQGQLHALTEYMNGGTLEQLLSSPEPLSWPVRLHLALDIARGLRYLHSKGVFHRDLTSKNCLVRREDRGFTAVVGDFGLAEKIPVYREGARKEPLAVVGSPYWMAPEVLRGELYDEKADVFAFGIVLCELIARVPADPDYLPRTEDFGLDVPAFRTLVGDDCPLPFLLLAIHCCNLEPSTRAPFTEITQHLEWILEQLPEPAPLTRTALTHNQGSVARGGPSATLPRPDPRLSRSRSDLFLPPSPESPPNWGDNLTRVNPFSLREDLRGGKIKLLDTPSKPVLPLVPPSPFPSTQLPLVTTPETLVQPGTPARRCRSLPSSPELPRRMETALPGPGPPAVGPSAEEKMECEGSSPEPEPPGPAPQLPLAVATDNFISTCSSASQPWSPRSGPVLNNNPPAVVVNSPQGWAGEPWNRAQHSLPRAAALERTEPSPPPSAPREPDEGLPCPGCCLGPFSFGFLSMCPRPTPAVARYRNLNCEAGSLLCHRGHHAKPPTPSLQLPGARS
Description: as §1

ZAP70 = target: T3, ZAP70 (Homo sapiens, UniProt P43403); experiment: Kinase profiling ZAP70
T3 sequence (P43403 1-619): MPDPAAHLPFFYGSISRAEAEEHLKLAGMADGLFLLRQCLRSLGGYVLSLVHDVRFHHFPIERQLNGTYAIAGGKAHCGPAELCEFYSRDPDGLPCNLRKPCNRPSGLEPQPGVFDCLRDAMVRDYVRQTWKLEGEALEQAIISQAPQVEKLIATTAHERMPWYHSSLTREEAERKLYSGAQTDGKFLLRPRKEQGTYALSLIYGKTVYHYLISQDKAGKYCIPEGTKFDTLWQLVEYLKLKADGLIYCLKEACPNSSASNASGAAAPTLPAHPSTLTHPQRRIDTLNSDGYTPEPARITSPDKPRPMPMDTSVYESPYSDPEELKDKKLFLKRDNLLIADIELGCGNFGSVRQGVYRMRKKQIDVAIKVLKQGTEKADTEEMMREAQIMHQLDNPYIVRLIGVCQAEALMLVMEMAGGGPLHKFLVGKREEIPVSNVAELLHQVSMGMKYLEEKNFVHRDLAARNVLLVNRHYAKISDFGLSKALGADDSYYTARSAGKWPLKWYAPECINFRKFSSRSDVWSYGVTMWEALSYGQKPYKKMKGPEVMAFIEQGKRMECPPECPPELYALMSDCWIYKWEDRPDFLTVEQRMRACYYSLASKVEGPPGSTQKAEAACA
Description: as §1

ABL = ABL (Homo sapiens, UniProt P00519); experiment: Kinase profiling ABL
Sequence of ABL (P00519 whole entry, species assumed): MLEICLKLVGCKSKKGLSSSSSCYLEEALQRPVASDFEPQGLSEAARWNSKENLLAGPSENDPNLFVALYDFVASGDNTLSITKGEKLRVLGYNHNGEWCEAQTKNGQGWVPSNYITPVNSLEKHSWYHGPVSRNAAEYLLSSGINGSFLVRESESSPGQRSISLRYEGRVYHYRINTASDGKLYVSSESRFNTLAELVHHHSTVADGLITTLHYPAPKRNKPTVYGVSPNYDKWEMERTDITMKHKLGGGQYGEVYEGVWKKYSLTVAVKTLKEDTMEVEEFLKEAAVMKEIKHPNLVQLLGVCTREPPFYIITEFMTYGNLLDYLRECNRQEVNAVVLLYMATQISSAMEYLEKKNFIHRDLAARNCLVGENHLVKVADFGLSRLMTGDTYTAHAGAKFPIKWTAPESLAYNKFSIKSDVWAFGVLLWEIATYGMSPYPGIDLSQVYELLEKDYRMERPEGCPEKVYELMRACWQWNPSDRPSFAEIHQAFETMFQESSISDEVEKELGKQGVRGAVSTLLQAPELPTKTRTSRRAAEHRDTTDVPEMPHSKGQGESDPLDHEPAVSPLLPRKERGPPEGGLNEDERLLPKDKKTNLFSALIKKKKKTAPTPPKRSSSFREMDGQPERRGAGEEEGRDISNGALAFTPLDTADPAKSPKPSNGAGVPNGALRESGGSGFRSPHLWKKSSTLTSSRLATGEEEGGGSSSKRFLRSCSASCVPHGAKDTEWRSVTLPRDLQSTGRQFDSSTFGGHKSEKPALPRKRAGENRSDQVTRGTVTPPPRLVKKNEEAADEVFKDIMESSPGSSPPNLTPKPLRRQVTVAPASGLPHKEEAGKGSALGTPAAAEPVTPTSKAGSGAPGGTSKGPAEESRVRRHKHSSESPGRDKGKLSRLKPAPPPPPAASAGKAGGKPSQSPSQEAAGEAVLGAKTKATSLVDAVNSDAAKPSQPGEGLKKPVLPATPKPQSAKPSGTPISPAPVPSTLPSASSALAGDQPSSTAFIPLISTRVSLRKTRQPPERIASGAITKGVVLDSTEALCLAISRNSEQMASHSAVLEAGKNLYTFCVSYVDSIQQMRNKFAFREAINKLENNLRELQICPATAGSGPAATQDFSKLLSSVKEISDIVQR
Description: as §1

MST3 = MST3 (Homo sapiens, UniProt Q9Y6E0); experiment: Kinase profiling MST3
Sequence of MST3 (Q9Y6E0 whole entry, species assumed): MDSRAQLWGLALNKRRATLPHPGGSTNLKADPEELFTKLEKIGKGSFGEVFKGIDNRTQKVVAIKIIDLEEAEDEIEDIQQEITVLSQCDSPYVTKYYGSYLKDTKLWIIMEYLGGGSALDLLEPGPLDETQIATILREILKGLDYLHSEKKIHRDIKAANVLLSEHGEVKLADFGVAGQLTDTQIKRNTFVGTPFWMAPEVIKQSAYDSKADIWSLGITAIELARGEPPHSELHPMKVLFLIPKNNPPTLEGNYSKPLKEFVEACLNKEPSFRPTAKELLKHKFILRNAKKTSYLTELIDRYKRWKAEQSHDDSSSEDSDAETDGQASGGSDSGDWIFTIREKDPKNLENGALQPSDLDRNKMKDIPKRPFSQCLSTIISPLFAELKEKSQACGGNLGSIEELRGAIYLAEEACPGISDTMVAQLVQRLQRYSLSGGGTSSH
Description: as §1

EPH-A4 = EPH-A4 (Homo sapiens, UniProt P54764); experiment: Kinase profiling EPH-A4
Sequence of EPH-A4 (P54764 20-986, species assumed): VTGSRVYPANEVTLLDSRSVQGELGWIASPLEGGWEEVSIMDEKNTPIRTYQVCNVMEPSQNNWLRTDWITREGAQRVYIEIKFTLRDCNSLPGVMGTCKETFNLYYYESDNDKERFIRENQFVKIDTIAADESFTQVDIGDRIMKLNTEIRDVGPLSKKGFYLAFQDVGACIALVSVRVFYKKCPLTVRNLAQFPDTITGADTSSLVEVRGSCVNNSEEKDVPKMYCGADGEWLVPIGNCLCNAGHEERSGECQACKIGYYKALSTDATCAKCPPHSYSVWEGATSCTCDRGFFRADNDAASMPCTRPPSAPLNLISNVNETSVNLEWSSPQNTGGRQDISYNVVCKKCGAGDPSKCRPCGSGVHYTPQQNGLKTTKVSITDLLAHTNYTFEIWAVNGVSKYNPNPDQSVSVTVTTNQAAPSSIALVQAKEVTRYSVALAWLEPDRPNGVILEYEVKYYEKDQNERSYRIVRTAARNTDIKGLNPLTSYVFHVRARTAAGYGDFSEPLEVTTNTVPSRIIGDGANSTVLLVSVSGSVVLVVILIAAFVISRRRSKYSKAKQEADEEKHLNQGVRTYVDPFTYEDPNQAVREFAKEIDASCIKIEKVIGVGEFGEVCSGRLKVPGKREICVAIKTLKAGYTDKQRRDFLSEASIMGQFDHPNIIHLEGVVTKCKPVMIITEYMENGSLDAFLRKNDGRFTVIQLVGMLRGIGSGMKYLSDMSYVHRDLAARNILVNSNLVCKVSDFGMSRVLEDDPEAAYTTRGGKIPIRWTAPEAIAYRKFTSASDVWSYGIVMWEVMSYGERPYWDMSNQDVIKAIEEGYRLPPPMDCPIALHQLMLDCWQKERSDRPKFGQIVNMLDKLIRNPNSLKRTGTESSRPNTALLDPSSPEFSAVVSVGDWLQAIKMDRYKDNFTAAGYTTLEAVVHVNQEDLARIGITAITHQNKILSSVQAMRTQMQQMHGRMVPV
Description: as §1

Sequence of PIM2 (Q9P1W9 whole entry, species assumed): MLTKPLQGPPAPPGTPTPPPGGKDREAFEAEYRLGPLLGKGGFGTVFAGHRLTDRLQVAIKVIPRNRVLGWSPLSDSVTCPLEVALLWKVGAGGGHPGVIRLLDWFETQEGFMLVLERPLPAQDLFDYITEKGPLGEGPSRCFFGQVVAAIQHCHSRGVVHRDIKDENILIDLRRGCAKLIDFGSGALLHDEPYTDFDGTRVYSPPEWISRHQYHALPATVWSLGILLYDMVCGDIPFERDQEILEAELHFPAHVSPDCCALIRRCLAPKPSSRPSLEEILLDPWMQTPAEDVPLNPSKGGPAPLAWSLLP

| Compound | residual kinase activity, PIM2 (PIM2) | residual kinase activity, MARK4 (MARK4) | residual kinase activity, GCK (GCK) | residual kinase activity, TESK1 (TESK1) | residual kinase activity, ZAP70 (ZAP70) | residual kinase activity, ABL (ABL) | residual kinase activity, MST3 (MST3) | residual kinase activity, EPH-A4 (EPH-A4) | remaining activity at 100 µM (PIM2; read-out: residual kinase activity, PIM2) | remaining activity at 100 µM (MARK4; read-out: residual kinase activity, MARK4) | remaining activity at 100 µM (GCK; read-out: residual kinase activity, GCK) | remaining activity at 100 µM (TESK1; read-out: residual kinase activity, TESK1) | remaining activity at 100 µM (ZAP70; read-out: residual kinase activity, ZAP70) | remaining activity at 100 µM (ABL; read-out: residual kinase activity, ABL) | remaining activity at 100 µM (MST3; read-out: residual kinase activity, MST3) | remaining activity at 100 µM (EPH-A4; read-out: residual kinase activity, EPH-A4) |
| --- | --- | --- | --- | --- | --- | --- | --- | --- | --- | --- | --- | --- | --- | --- | --- | --- |
| CC(=O)Nc1nc2cc(C)ccc2s1 [Compound 03-76] | 82 | 80 | 35 | 106 | 110 | 82 | 85 | 91 |  |  |  |  |  |  |  |  |
| CC(=O)Nc1nc2cc(F)ccc2s1 [Compound 03-77] |  |  |  |  |  |  |  |  | 62% | 86% | 8% | 106% | 109% | 86% | 87% | 100% |
| O=C(Nc1nc2ccc(O)cc2s1)c1ccncc1 [Compound 08-42] | 90 | 82 | 27 | 73 | 92 | 76 | 77 | 92 |  |  |  |  |  |  |  |  |
| O=C(Nc1nc2ccc(O)cc2s1)c1cccnc1 [Compound 08-44] | 76 | 77 | 31 | 70 | 79 | 58 | 76 | 89 |  |  |  |  |  |  |  |  |
